Assays:
Type in all cases: cell-based, human
[1] = system: T cell lines primed in vitro with Der p II; assay: T cell proliferation with fine map and modified Group II peptides (Example XIV); settings: FIGS. 32a-b
Procedure: Long term T cell lines were established by stimulation of 2×10^6 PBL/ml in bulk cultures of complete medium (RPMI-1640, 2 mM L-glutamine, 100 U/ml penicillin/streptomycin, 5×10^-5 M 2-mercaptoethanol, and 10 mM HEPES supplemented with 5% heat inactivated human AB serum) with 30 μg/ml of purified native Der p I or Der p II for 5-6 days at 37° C. in a humidified 5% CO2 incubator to select for house dust mite protein allergen reactive T cells. This amount of priming antigen was determined to be optimal for the activation of T cells from house dust mite allergic patients. Viable cells were purified by LSM centrifugation and cultured in complete medium supplemented with 5 units recombinant human IL-2/ml and 5 units recombinant human IL-4/ml for up to three weeks until the cells no longer responded to lymphokines and were considered "rested". The ability of the T cells to proliferate to selected peptides, purified Der p I or Der p II, or positive (PHA) controls or negative controls (medium only) was then assessed. For assay, 2×10^4 rested cells were restimulated in the presence of 2×10^4 autologous Epstein-Barr virus (EBV)-transformed B cells (prepared as described below) (gamma-irradiated with 25,000 RADS) or with 5×10^4 autologous PBMs (gamma-irradiated with 3500 RADS), with 2-50 μg/ml of purified native Der p I or Der p II in a volume of 200 μl complete medium in duplicate or triplicate wells in 96-well round bottom plates for 3 days. Each well then received 1 μCi tritiated thymidine for 16-20 hours. The counts incorporated were collected onto glass fiber filter mats and processed for liquid scintillation counting. […] The titrations were used to optimize the dose of peptides in T cell assays.
The maximum response in a titration of each peptide is expressed as the stimulation index (S.I.). The S.I. is the counts per minute (CPM) incorporated by cells in response to peptide, divided by the CPM incorporated by cells in medium only. […] The positive results were used in calculating mean stimulation indices for each peptide for the individual patient tested.
The above procedure was followed with 18 patients in the studies using peptides derived from Der p I and Der f I (FIGS. 31a-b), and 21 patients in the studies with Der p II peptides (FIGS. 32a-b). Individual patient results were used in calculating the mean S.I. for each peptide if the patient responded to the Der p I or Der p II protein at an S.I. of 2.0 or greater and the patient responded to at least one peptide derived from a house dust mite allergen at an S.I. f 2.0 or greater. A summary of positive experiments from the patients tested is shown in FIGS. 32a and 32b and FIGS. 33a and 33b. The bars represent the positivity index. […] In parenthesis above each bar are the mean stimulation indices for each peptide or protein for the group of patients tested.
Autologous EBV-transformed cell lines were γ-irradiated with 25,000 Rad and used as antigen presenting cells in secondary proliferation assays and secondary bulk stimulations. These EBV-transformed cell lines were made by incubating 5×10^6 PBL with 1 ml of B-59/8 Marmoset cell line (ATCC CRL1612, American Type Culture Collection, Rockville, Md.) conditioned medium in the presence of 1 μg/ml phorbol 12-myristate 13-acetate (PMA) at 37° C. for 60 minutes in 12×75 mm polypropylene round-bottom Falcon snap cap tubes (Becton Dickinson Labware, Lincoln Park, N.J.). These cells were then diluted to 1.25×10^6 cells/ml in RPMI-1640 as described above except supplemented with 10% heat-inactivated fetal bovine serum and cultured in 200 μl aliquots in flat bottom culture plates until visible colonies were detected. They were then transferred to larger wells until the cell lines were established.

[2] = system: T cell lines primed in vitro to Der p II; assay: secondary proliferation of Der p II-primed T cell lines (Examples VIII, X, XI); settings: for T-cell reactivity (DPII-22 series development): Der p II T-cell map and analogs; for T cell reactivity: overlapping Der p II peptides, FIG. 9
Procedure: Experiments similar to those of Example V were performed to determine the T cell-reactive areas of the Der p II protein. For example, PBMC from house dust mite-allergic patient 348 were isolated as described in Example V and were stimulated in vitro with 20 μg/ml purified native Der p II.
The above procedure was followed with a number of patients except in individual cases, T cell lines were primed with recombinant Der p II at 20 μg/ml or at 3 μg/ml and x-irradiated (3500 Rads) autologous PBMC were used as antigen-presenting cells. The data was analyzed as described in Example V, except the ranked sum of peptide responses was analyzed assigning a value of 3, 2 or 1 to the three highest S.I. responses.
A study similar to that described in Example VII was carried out to determine the T cell cross-reactivity of the Der p II and Der f II proteins. T cells primed with the Der f II protein were challenged with various Der f II peptides and a set of substantially matching Der p II peptides.
Another experiment following the procedure described in Example VIII analyzed the response of 29 patients primed in vitro to the Der p II protein and challenged with selected peptides derived from the Der p II sequence.

[3] = system: PBMC from mite-allergic patient; assay: primary T cell (PBMC) proliferation, mite-allergic patient, tritiated thymidine; settings: medium 1071 ± 30
Procedure: Peripheral blood mononuclear cells (PBMC) were purified by Ficoll-Hypaque centrifugation of a peripheral blood specimen from mite-allergic patient and were assayed for proliferation in response to various antigens, i.e., affinity-purified Der p I, affinity purified Der p II, various Der p I and Der p II peptides. For assay, 5×10^4 PBMC were cultured in triplicate microwells for 7 days at 37° C. in the presence of various concentrations of antigen in 200 μl RPMI-1640 containing 5% human AB serum. Each well then received 1 μCi tritiated thymidine for 16 hours. The counts incorporated were collected onto glass fiber filters and processed for liquid scintillation counting. […] The CPM +/- standard deviation are shown. The stimulation index of each response (S.I.) is the ratio of the ^3 H-thymidine CPM incorporated by the cells in response to antigen divided by the ^3 H-thymidine CPM incorporated by cells in medium only. […] Thus, these peptides contain Der p I or Der p II T cell epitopes recognized by T cells from this particular allergic patient.

[4] = system: T cell lines primed in vitro to Der p I; assay: secondary proliferation of Der p I-primed T cell lines (Examples V, VII, XI); settings: overlapping Der p I peptides; 33 positive experiments
Procedure: 10^7 PBMC from individual 543 were cultured in 10 ml RPMI-1640 containing 5% pooled human AB serum and supplemented with glutamine, penicillin, streptomycin and HEPES buffer in the presence of 20 μg/ml purified native Der p I/ml at 37° C. for 7 days. Viable cells were then purified by Ficoll-Hypaque centrifugation and cultured for 2 additional weeks in RPMI-1640/5% AB serum containing 5 units recombinant human IL-2/ml and 5 units recombinant human IL-4/ml. The resting T cells were then tested in a secondary proliferation assay to assess T cell responses to various house dust mite proteins and peptides. For assay, 2×10^4 resting T cells were cultured in 200 μl of RPMI-1640/5% AB serum for 3 days at 37° C. in the presence of 2×10^4 autologous Epstein-Barr virus transformed B cells (20,000 Rads) as antigen presenting cells with various concentrations of purified native Der p I or synthetic Der p I peptides. Each well then received 1 μCi tritiated thymidine for 16 hours. The counts incorporated were collected onto glass fiber filters and processed for liquid scintillation counting. Medium alone, acting as negative control, contained no allergen or peptide. The results of this experiment indicate that this particular patient responds with an S.I. of at least 2.0 to several peptides derived from the Der p I protein, including DP I-1, DP I-2, DP I-4, DP I-11, DP I-5, DP I-13, DP I-15, DP I-6.1, DP I-8, DP I-9, DP I-16, DP I-10 and DP I-17 (data not shown).
The above procedure was followed with a number of other house dust mite allergic individuals except a) in individual cases, the length of time of cultivation with IL-2 and IL-4 varied; b) in individual cases, the T cells were primed with either purified native (N) or recombinant (R) Der p I protein at either 20 μg/ml or 10 μg/ml; and c) in individual cases, x-irradiated (3500 Rads) autologous PBMC were used as antigen presenting cells in the secondary proliferation assay.
Individual results were considered positive and used if the individual responded to the Der p I protein and at least one peptide derived from Der p I at an S.I. of 2.0 or greater. The resting T cell lines primed with recombinant or native Der p I-stimulated PBMC were tested for reactivity to synthetic Der p I peptides. The maximum response for each peptide in a titration of the antigen is expressed as the T cell stimulation index (S.I.). The S.I. is the counts-per-minute (CPM) incorporated by cells in response to the peptide divided by the CPM incorporated by cells in medium only. […] However, only individual S.I. values greater than or equal to 2.0 (a response two-fold or greater over background), referred to herein as "positive" results, were used in calculating mean T cell stimulation indices for each peptide for the patient or group of patients tested. […] The T cell stimulation index is calculated by: [formula]
The bar represents the cumulative rank of the peptide response in the group of patients. To determine the cumulative rank, the 5 peptides with the highest S.I. in each individual were determined and assigned a numerical rank in descending order, with 5 representing the strongest response. The ranks for each peptide were then summed in the group of patients to determine the cumulative rank for the peptide. […] Given the percent positive and the mean T cell stimulation index, the positivity index (P.I.) for each peptide can be calculated.
The Der p I and Der f I proteins are very homologous (81% identity). Thus, experiments, similar to those of Example V, were carried out to determine the T cell responses of Der p I primed T cell lines when challenged with various Der p I peptides and substantially matching […].
The results of T cell studies using selected peptides derived from the Der p I, the Der f I, the Der p II and the Der f II proteins are shown in FIGS. 13-18a-d. […]

[5] = system: T cell lines primed in vitro to Der f I; assay: secondary proliferation of Der f I-primed T cell lines (Examples VI, VII, XI); settings: Der f I primed; 8 positive experiments; FIG. 8
Procedure: Experiments similar to those of Example V were performed to determine. the T cell-reactive areas of the Der f I protein. For example, PBMC from house dust mite-allergic patient 783 were isolated as described in Example V and were stimulated in vitro-- with recombinant purified Der f I at 20 μg/ml. The results of the proliferation assay with Der f I peptides using x-irradiated (3500 Rads) autologous PBMC as antigen presenting cells indicate that T cells from this patient respond to the peptides DF I-8.1, DF I-9, DF I-6, DF I-10, DF I-2.1, DF I-3, DF I-11, DF I-5, DF I-1, and DF I-17 (data not shown).
The above procedure was followed in a number of patients except in individual cases, T cell lines were primed with affinity purified Der f I at 20 μg/ml or at 10 μg/ml and x-irradiated (25,000 Rads) autologous Epstein-Barr virus transformed B cells were used as antigen presenting cells. […]
Similarly, the procedure described in Example VI was followed with T cell lines from 9 patients primed in vitro to the Der f I protein then analyzed for response to selected peptides derived from the protein. The data was analyzed as described in Example VI. […]

DP II-20: Der p II peptide (DQVDVKDCANHEIKKVLVPGCHGSEP)
T cell response, Group II peptides [1]: positive T cell studies

DP II-3.1: Der p II peptide, native sequence (HGSEPCIIHRGKPFQLEAVFEANQNTKTA)
difference in mean S.I. or percentage of positive responses, original vs additional (native sequence) peptides ([2]; DP II-3 vs DP II-3.1): no significant difference
T-cell reactivity (DPII-22 series development) [2]: high T-cell reactivity

DP I-8: Der p I peptide (IKDLDAFRHYDGTRIIQRDNGYQPNY)
CPM ± S.D. ([3]; 10 μg/ml): 1439 ± 32 CPM
CPM ± S.D. ([3]; 30 μg/ml): 1045 ± 32 CPM
CPM ± S.D. ([3]; 100 μg/ml): 2272 ± 40 CPM
T cell reactivity [4]: significant regions of T cell reactivity
T cell response to Der p I peptides [5]: respond significantly

DP II-9: Der p II peptide (VVTVKVMGDDGVLACAIATHAKIRD)
CPM ± S.D. ([3]; 10 μg/ml): 3970 ± 87 CPM
CPM ± S.D. ([3]; 30 μg/ml): 4464 ± 86 CPM
CPM ± S.D. ([3]; 100 μg/ml): 2237 ± 53 CPM
T cell reactivity ([2]; 26 positive experiments): significant T cell reactivity
T cell response ([2]; patient 348, native Der p II primed, data not shown): responds well

DPII-8: printed among the modified forms; SEQ ID NO 171 in b126, probably DP II-20.8 (DQVDVKDCANHEIKKVLVPGCHGSEPK)
T cell response, Group II peptides [1]: positive T cell studies

DP II-3: Der p II peptide with a low number of conservative changes from the native sequence (HGSEPCIIHRGKPFQLEAVFEAVQNTKTA)
T cell reactivity ([2]; 26 positive experiments): significant T cell reactivity

DP II-5: Der p II peptide (KIEIKASIDGLEVDVPGIDPNACHYMK)
T-cell reactivity (DPII-22 series development) [2]: high T-cell reactivity

DF II-18: Der f II peptide (DAKYTWNVPKIAPKSENVVVTVKLVG)
T cell response to Der f II peptides ([2]; Der p II primed, 26 positive experiments, FIG. 12): respond significantly

Source: patent US5968526A, “T cell epitopes of the major allergens from Dermatophagoides (house dust mite)” (Immulogic Pharamaceutical Corporation, priority 1995, dated 1999)
